Earlier results in PMC10010621, “ATP binding by an F1Fo ATP synthase ε subunit is pH dependent, suggesting a diversity of ε subunit functional regulation in bacteria” (Frontiers in Molecular Biosciences, 2023).

Experiments:
[1] = set-up: method as in Tanokura et al., 1976; details: solution phase; ref Tanokura et al., 1976
[2] = test system: C. thermarum ε subunit NTH mutant (εD89A, εR92A); set-up: method as in Ferguson et al., 2016; details: F1 domain, ref Ferguson et al., 2016
[3] = test system: Escherichia coli ε subunit; set-up: method as in Yagi et al., 2007; details: isolated ε subunit; ref Yagi et al., 2007; read-out: Kd (ATP binding affinity)
[4] = biological target: Bacillus PS3 ε subunit; details: isolated ε subunit; ref Kato et al., 2007; read-out: Kd (ATP binding affinity)
[5] = test system: B. subtilis ε subunit εE102A; set-up: method as in Krah et al., 2021; details: εE102A versus wild-type; ref Krah et al., 2021
[6] = test system: B. subtilis ε subunit εE102R; set-up: method as in Krah et al., 2021; details: εE102R versus wild-type; ref Krah et al., 2021
[7] = biological target: εR103A/εR115A double-mutant ε subunit of Bacillus PS3; set-up: method as in Kato-Yamada, 2016; details: ref Kato-Yamada, 2016, read-out: ATP binding affinity
[8] = test system: ε subunit of M. tuberculosis; set-up: method as in Biukovic et al., 2013; details: at the conditions measured; ref Biukovic et al., 2013
[9] = biological target: Bacillus subtilis ε subunit; set-up: method as in Kato-Yamada, 2005; Krah et al., 2021; details: isolated ε subunit; ref Kato-Yamada, 2005; Krah et al., 2021; read-out: Kd (ATP binding affinity)

Row | Structure (SMILES) | pKa of the imidazole group [1] | ATP binding [2] | Kd [3] [µM] | Kd [4] [µM] | increase in ATP binding affinity [5] [fold] | increase in ATP binding affinity [6] [fold] | Kd [7] [µM] | ATP binding [8] | Kd [9] [µM]
1 | N[C@@H](Cc1c[nH]cn1)C(=O)O [histidine] | 6.0–6.5 | – | – | – | – | – | – | – | –
2 | Nc1ncnc2c1ncn2[C@@H]1O[C@H](COP(=O)(O)OP(=O)(O)OP(=O)(O)O)[C@@H](O)[C@H]1O [ATP] | – | lack of ability to bind ATP | 22000 | 4.3 | ~10 | ~54 | 0.052 | did not bind to ATP | 2100
